From patent US5994334A, “Androgen synthesis inhibitors” (priority 1997, dated 1999)
Where two headings read alike, the source gives them in different places.

Assays:
[1] = molecular target: T1, Human Prostatic 5α-Reductase (Homo sapiens, UniProt P31213); test: Inhibition of human prostatic 5α-reductase (prostatic microsomes, [3H]testosterone); conditions: for inhibition at 0.1 µM: read-out: % Inhibition of 5α-reductase, [I] 100 nM; for inhibition at 0.4 µM: read-out: % Inhibition of 5α-reductase, [I] 400 nM
T1 sequence (P31213 1-254): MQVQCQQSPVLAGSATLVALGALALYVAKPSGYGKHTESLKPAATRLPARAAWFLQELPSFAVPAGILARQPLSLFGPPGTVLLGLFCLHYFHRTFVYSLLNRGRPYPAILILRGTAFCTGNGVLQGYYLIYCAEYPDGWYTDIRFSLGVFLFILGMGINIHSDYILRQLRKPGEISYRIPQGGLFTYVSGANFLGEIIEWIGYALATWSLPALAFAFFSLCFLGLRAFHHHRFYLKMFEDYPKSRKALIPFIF

[2] = molecular target: T2, Human Testicular 17α-Hydroxylase (Homo sapiens, UniProt P05093); test: Inhibition of human testicular 17α-hydroxylase (pregnenolone substrate, testicular microsomes); assay type: biochemical; conditions: for inhibition at 0.1 µM: 100 nM, read-out: % Inhibition 17α-hydroxylase, [I] = 100 nM; for inhibition at 0.4 µM: 400 nM, read-out: % Inhibition 17α-hydroxylase, [I] = 400 nM
T2 construct: incubating human testicular microsomes; from tissue; host or cells: human testis, microsomes
T2 sequence (P05093 1-508): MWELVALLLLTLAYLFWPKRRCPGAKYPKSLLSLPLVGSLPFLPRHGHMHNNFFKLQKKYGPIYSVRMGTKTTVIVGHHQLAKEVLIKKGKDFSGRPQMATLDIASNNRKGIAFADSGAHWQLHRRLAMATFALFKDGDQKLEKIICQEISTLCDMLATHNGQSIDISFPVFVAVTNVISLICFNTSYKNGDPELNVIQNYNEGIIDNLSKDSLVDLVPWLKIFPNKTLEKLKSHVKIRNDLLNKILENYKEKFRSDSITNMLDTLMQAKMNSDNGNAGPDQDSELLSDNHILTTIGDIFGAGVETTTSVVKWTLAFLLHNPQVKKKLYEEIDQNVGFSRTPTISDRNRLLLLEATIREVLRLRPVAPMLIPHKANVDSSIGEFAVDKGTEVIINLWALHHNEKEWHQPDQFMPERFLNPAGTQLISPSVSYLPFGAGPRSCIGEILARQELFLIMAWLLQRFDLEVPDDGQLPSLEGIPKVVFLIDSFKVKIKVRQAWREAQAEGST
Method: (§1) The conversion of radiolabeled pregnenolone to 17α-hydroxypregnenolone and DHEA by 17α-hydroxylase/C17,20 -lyase was measured by incubating human testicular microsomes with different concentration of test compounds. Reverse phase HPLC was used to separate and accurately quantify the amount of substrate and metabolites. The 17α-hydroxylase and C17,20 -lyase activities were calculated separately. The activity of 17α-hydroxylase was calculated from the conversion of pregnenolone to 17α-hydroxypregnenolone and DHEA and the activity of C17,20 -lyase was based on the conversion of pregnenolone to DHEA. Although 17α-hydroxypregnenolone is the substrate converted to DHEA by C17,20 -lyase, it has been reported that this 17α-hydroxy intermediate is not released from the enzyme binding site during conversion (Nakajin et al., 1981a,b). Also, there are species differences in substrate requirements. Pregnenolone is the natural substrate rather than progesterone for human testicular 17α-hydroxylase and C17,20 -lyase. Therefore, pregnenolone was used as substrate for measuring the activity of this enzyme complex.

[3] = molecular target: T3, Human Testicular C17,20-lyase (Homo sapiens, UniProt P05093); test: Inhibition of human testicular C17,20-lyase (pregnenolone substrate, testicular microsomes); assay type: biochemical; conditions: for inhibition at 0.1 µM: 100 nM, read-out: % Inhibition C17,20-lyase, [I] = 100 nM; for inhibition at 0.4 µM: 400 nM, read-out: % Inhibition C17,20-lyase, [I] = 400 nM
T3 construct: incubating human testicular microsomes; from tissue; host or cells: human testis, microsomes
T3 sequence (P05093 1-508): T2 sequence (P05093 1-508)
Method: as §1

[4] = molecular target: T4, human 17α-hydroxylase/C17,20-lyase (Homo sapiens, UniProt P05093); test: Inhibition of human testicular 17α-hydroxylase/C17,20-lyase (enzyme complex as a whole); assay type: biochemical; conditions: NI = no inhibition
T4 construct: incubating human testicular microsomes; from tissue; host or cells: human testis, microsomes
T4 sequence (P05093 1-508): T2 sequence (P05093 1-508)
Method: as §1

[5] = Table 1, NI = no inhibition, read-out: IC50 17α-OHase
[6] = Table 1, NI = no inhibition, CI = complete inhibition, read-out: IC50 C17,20 lyase

## C[C@]12CC[C@H]3[C@@H](CC[C@]45CC(=O)CC[C@]34[C@@H]5O)[C@@H]1CCC2=O [Compound L-20, 19(R)-Hydroxy-5,19β-cyclo-androst-3,17-dione]
[1]
  inhibition at 0.1 µM: 5.89%
  inhibition at 0.4 µM: 12.2%

## C[C@@H](N)[C@H]1CC[C@H]2[C@@H]3CC=C4C[C@@H](O)CC[C@]4(C)[C@H]3CC[C@]12C [Compound I-9]
[2]; [5]
  IC50: 89800 nM
[3]; [6]
  IC50: 43900 nM
[4]
  inhibition of 17α-hydroxylase/C17,20-lyase (in words): poor inhibition

## C[C@]12CC[C@H]3[C@@H](CC[C@]45CC(=O)CC[C@]34[C@H]5O)[C@@H]1CC[C@@H]2O [Compound L-19, 17β,19(S)-dihydroxy 5,19β-cycloandrost-3-one]
[1]
  inhibition at 0.1 µM: 8.7%
  inhibition at 0.4 µM: 14.8%

## C[C@H](c1c[nH]cn1)[C@H]1CC[C@H]2[C@@H]3CCC4=CC(=O)CC[C@]4(C)[C@H]3CC[C@]12C [Compound I-45]
[2]; [5]
  IC50: > 30000 nM
[3]; [6]
  IC50: > 30000 nM
[4]
  inhibition of 17α-hydroxylase/C17,20-lyase (in words): did not show any activity

## CC(=O)O[C@H]1CC[C@@]2(C)C(=CC[C@@H]3[C@@H]2CC[C@]2(C)C(C(C)=O)=CC[C@@H]32)C1 [Compound I-37]
[2]; read-out: IC50 17α-OHase
  IC50: 1890 nM
[3]; read-out: IC50 C17,20 lyase
  IC50: 1710 nM
[4]
  inhibition of 17α-hydroxylase/C17,20-lyase (in words): less activity than the 3-hydroxy compound

## C[C@]12CC[C@H]3[C@@H](CCC4=CC(=O)CC[C@@]43C)[C@@H]1CC[C@@H]2c1ncc[nH]1 [Compound L-3]
[2]; first figure of pair
  inhibition at 0.1 µM: 20.3%
  inhibition at 0.4 µM: 43.5%
[3]; second figure of pair
  inhibition at 0.1 µM: 62.9%
  inhibition at 0.4 µM: 100%
[1]
  inhibition at 0.1 µM: 31.7%
  inhibition at 0.4 µM: 61.7%

## C[C@]12CC[C@H]3[C@@H](CC=C4C[C@@H](O)CC[C@@]43C)[C@@H]1CC[C@@H]2c1c[nH]c(-c2ccccc2)n1 [Compound L-7]
[2]; first figure of pair
  inhibition at 0.1 µM: 10.3%
  inhibition at 0.4 µM: 20.9%
[3]; second figure of pair
  inhibition at 0.1 µM: 9.5%
  inhibition at 0.4 µM: 33.8%

## C[C@]12CCC(=O)C=C1CC[C@@H]1[C@@H]2CC[C@@]2(C)[C@H]1CC[C@]2(O)c1c[nH]cn1 [Compound I-44]
[2]; [5]
  IC50: 1200 nM
[2]; first figure of pair, read-out: IC50 17α-hydroxylase
  IC50: 1200 nM
[3]; [6]
  IC50: 1000 nM
[3]; second figure of pair, read-out: IC50 C17,20-lyase
  IC50: 1000 nM

## C[C@]12CC[C@H]3[C@@H](CCC4=CC(=O)CC[C@@]43CBr)[C@@H]1CCC2=O [Compound L-24, 19-Bromo-androst-4-ene-3,17-dione]
[1]
  inhibition at 0.1 µM: 12.3%
  inhibition at 0.4 µM: 52.7%

## Cc1nc([C@H]2CC[C@H]3[C@@H]4CC=C5C[C@@H](O)CC[C@]5(C)[C@H]4CC[C@]23C)co1 [Compound L-5]
[2]; first figure of pair
  inhibition at 0.1 µM: 22.4%
  inhibition at 0.4 µM: 26.5%
[3]; second figure of pair
  inhibition at 0.1 µM: 71.2%
  inhibition at 0.4 µM: 81.7%
[4]
  inhibition of 17α-hydroxylase/C17,20-lyase (in words): less inhibition

## C[C@H](N)[C@H]1CC[C@H]2[C@@H]3CC=C4C[C@@H](O)CC[C@]4(C)[C@H]3CC[C@]12C [Compound I-10]
[2]; [5]
  IC50: 9800 nM
[3]; [6]
  IC50: 8000 nM
[4]
  inhibition of 17α-hydroxylase/C17,20-lyase (in words): poor inhibition

## CC(=NN(C)C)C1=CC[C@H]2[C@@H]3CC=C4C[C@@H](O)CC[C@]4(C)[C@H]3CC[C@]12C [Compound I-14]
[4]
  inhibition of 17α-hydroxylase/C17,20-lyase (in words): devoid of inhibitory activity

## C[C@H](O)C1=CC[C@H]2[C@@H]3CC=C4C[C@@H](O)CC[C@]4(C)[C@H]3CC[C@]12C [Compound L-9]
[4]
  inhibition of 17α-hydroxylase/C17,20-lyase (in words): less active
[1]; read-out: % Inhibition of 5α-reductase, [I] 10 nM
  inhibition at 0.01 µM: 33.2%

## CN(C=O)[C@H]1CC[C@H]2[C@@H]3CC=C4C[C@@H](O)CC[C@]4(C)[C@H]3CC[C@]12C [Compound I-39]
[2]; [5]
  IC50: 290 nM
[3]; [6]
  IC50: 280 nM

## C[C@H](C=O)[C@H]1CC[C@H]2[C@@H]3CC=C4C[C@@H](O)CC[C@]4(C)[C@H]3CC[C@]12C [Compound I-31]
[2]; [5]
  IC50: 80 nM
[3]; [6]
  IC50: 80 nM
